# US12508323B2, “Method of treatment of colorectal, breast and lung cancer with metal containing immune agonist complexes” (HANGZHOU XINGAO BIOTECHNOLOGY CO., LTD., priority 2020, dated 2025)
# What was measured:
# amyloid plaques = assay: Thioflavin S staining of brain amyloid plaques in AD mice; type: in vivo; conditions: 10 mg/kg i.p., 60 days of administration
# Experimental: Seven groups of AD mice in the above examples were tested in view of reduction of amyloid plaques in the brains of AD mice after 60 days of administration. The experiment was a thioflavin S staining experiment, and the experimental procedures were described below. 60 days after drug administration, brain tissue of mice was taken, fixed, embedded with paraffin, sectioned, de-waxed with xylene, dehydrated with ethanol gradient, and rinsed with TBS solution three times. After that, 0.3% thioflavin S (dissolved in 50% ethanol) was dropped on the tissue followed by incubation for 10 min at room temperature, rinsing with 50% ethanol three times, rinsing with TBS solution, drying in the shade, and sealing. Then the issue was examined by laser confocal microscopy (Leica, Germany) to detect the changes in the amount of amyloid plaque deposition in the brain of AD mice.
# [1] = tested on: murine breast cancer cell line 4T1-luc; assay: Anti-metastasis of murine breast cancer 4T1-luc, in vivo optical imaging; conditions: 4T1-luc in BALB/C mice, i.p. 10 mg/kg (nanobody 200 μg/mouse) once a day, sites of metastasis
# Experimental: Specific pathogen free (SPF)-grade BALB/C male mice, aged 7-8 weeks and weighing 20-22 g, were purchased from Shanghai Slac Laboratory Animal Co., Ltd (Laboratory animal quality certificate number: SCXK (Shanghai)2007-0005.
# Mice were injected intraperitoneally with the immune agonist complex or MncGAMP with a dose of 10 mg/kg, or each injected intraperitoneally with 200 μg of the nanobody.
# Administration route: intraperitoneal injection.
# Frequency: once a day for consecutive 21 days.
# Used herein was murine breast cancer cell line 4T1-luc (luciferase labeled tumor cells), which was provided by medical department of Zhejiang University School. The 4T1-luc cell line in BALB/C mice had similar growth and metastatic properties to breast tumors in humans, which was an animal model for […] breast cancer in humans. The 4T1-luc cell line spontaneously produced highly metastatic tumors that metastasize to the lung, liver, lymph nodes, and brain, while forming the primary site at the injection site. Luciferase was a general term for a class of enzymes in living organisms that catalyze the oxidative luminescence of luciferin or firefly aldehyde, which was derived from organisms naturally capable of luminescence.
# Cancer cells were cultured, passaged, collected at the logarithmic phase of cells, and prepared into a cell suspension at a concentration of (1.0×10^7) per ml. Mice were injected with 0.2 ml of the cell suspension at the axilla of the right forelimb (2.0×10^6 cells/each), and were injected with drugs the day after inoculation with breast cancer cells. […]
# Metastasis of murine breast cancer in mice was detected using a small animal in vivo optical imaging system (Perkin Elmer, IVIS Lumina XRMS Series III) on days 5, 10, 20, and 30 after drug administration, respectively, which was done at Shanghai Medical College of Fudan University.
smiles,measurement,setting,value
"Nc1nc(=O)c2ncn(C3OC4COP(=O)(O)OC5C(COP(=O)(O)OC3C4O)OC(n3cnc4c(N)ncnc43)C5O)c2[nH]1 (stereo not shown) [cGAMP, 2′3′-cGAMP]",Average count points of fluorescence intensity of amyloid plaques in brain tissues of AD mice (field of view area),amyloid plaques,1800 ± 160
same,"Metastasis of breast cancer, Day 5",[1]; day 5 after drug administration,No
same,"Metastasis of breast cancer, Day 10",[1]; day 10 after drug administration,No
same,"Metastasis of breast cancer, Day 20",[1]; day 20 after drug administration,No
